According to PubChem BioAssay (NCI):
Several values for one entry are separate records, joined by “and”; a condition that tells them apart may be missing. Equal values may be shown once.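 Test compounds were applied to cells in 96-well plates for 48 hours at 5 doses. At the GI50, growth is halved. The concentration for full growth arrest is given as TGI.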

How the values were obtained:
Assay in all cases: NCI tumour cell line growth inhibition, 48 h
[1] = system: MDA-N
[2] = system: XF 498 CNS
[3] = system: P388/ADR leukemia
[4] = system: MCF7 breast
[5] = system: DMS 114 small cell lung
[6] = system: SNB-78 CNS
[7] = system: DMS 273 small cell lung
[8] = system: HOP-18 NSCLC

C/C=C1\NC(=O)[C@H]2CSSCCC=C[C@H](CC(=O)N[C@H](C(C)C)C(=O)N2)OC(=O)[C@H](C(C)C)NC1=O
TGI [1]: 0.0176 µM and < 0.0319 µM
TGI [2]: 0.0155 µM and 0.0624 µM
TGI [3]: 0.125 µM
GI50 [4]: < 0.01 µM
TGI [4]: 0.0148 µM and 0.00981 µM and 0.0352 µM
TGI [5]: 0.00885 µM
GI50 [6]: 0.0123 µM
TGI [7]: 0.0102 µM
TGI [8]: 0.054 µM and 0.0719 µM
